# Test results as given in patent publication US10597388B2, “Pyridazinone herbicides” (FMC CORPORATION, priority 2014, dated 2020).
# How the values were obtained:
# Format in all cases: in vivo
# [1] = tested on: corn (Zea mays); test: Test A greenhouse herbicide test, pre- and postemergence; conditions: Postemergence; for Plant response rating, Corn: 125 g ai/ha; for Corn plant response rating: 500 g ai/ha, 0 to 100 scale, 0 is no effect, 100 is complete control
# Summary of the method: (§1)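 Seeds in loam–sand blend received a preemergence directed soil spray; plants at 2–10 cm, one- to two-leaf stage, received postemergence sprays. Compounds in a non-phytotoxic solvent with surfactant. After about 10 d in a greenhouse, injury rated visually versus untreated controls on a 0–100 scale (100 = complete control).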
# [2] = tested on: foxtail, giant (giant foxtail, Setaria faberii); test: as above
# Summary of the method: as §1
# [3] = tested on: ryegrass, Italian (Italian ryegrass, Lolium multiflorum); test: as above
# Summary of the method: as §1
# [4] = tested on: wheat (Triticum aestivum); test: as above; conditions: Postemergence; for Plant response rating, Wheat: 125 g ai/ha, 0 to 100 scale where 0 is no effect and 100 is complete control; for Wheat plant response rating: 500 g ai/ha, 0 to 100 scale, 0 is no effect, 100 is complete control
# Summary of the method: as §1
# [5] = tested on: blackgrass (Alopecurus myosuroides); test: Test C greenhouse herbicide test, pre- and postemergence
# Summary of the method: (§2)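 Visual ratings on a 0 to 100 scale (0 = no effect, 100 = complete control) versus untreated controls, scored 13–15 d after treatment. Soil-applied preemergence to seeded loam/sand; foliar postemergence to 1- to 4-leaf plants (2–18 cm) in peat-vermiculite mix; compounds formulated in solvent plus surfactant.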
# [6] = tested on: corn (Zea mays); test: as above
# Summary of the method: as §2
# [7] = tested on: nutsedge, yellow (yellow nutsedge, Cyperus esculentus); test: as above
# Summary of the method: as §2
# [8] = tested on: pigweed (Amaranthus retroflexus); test: as above
# Summary of the method: as §2
# [9] = tested on: soybean (Glycine max); test: as above
# Summary of the method: as §2
# [10] = tested on: velvetleaf (Abutilon theophrasti); test: as above
# Summary of the method: as §2
# [11] = tested on: waterhemp (common waterhemp, Amaranthus rudis); test: as above
# Summary of the method: as §2
# [12] = Postemergence, 500 g ai/ha, 0 to 100 scale, 0 is no effect, 100 is complete control
# [13] = Preemergence, 125 g ai/ha, 0 to 100 scale where 0 is no effect and 100 is complete control
# [14] = Preemergence, 500 g ai/ha, 0 to 100 scale, 0 no effect, 100 complete control
# [15] = Postemergence, 125 g ai/ha, 0 to 100 scale where 0 is no effect and 100 is complete control
# [16] = Postemergence, 8 g ai/ha, scale 0 to 100 (0 no effect, 100 complete control)
# [17] = Postemergence, 16 g ai/ha, scale 0 to 100 (0 no effect, 100 complete control)
# [18] = Postemergence, 31 g ai/ha, 0 to 100 scale (0 no effect, 100 complete control)
# [19] = Preemergence, 8 g ai/ha, scale 0 to 100, 0 is no effect, 100 is complete control
# [20] = Preemergence, 16 g ai/ha, scale 0 to 100, 0 is no effect, 100 is complete control
# [21] = Preemergence, 31 g ai/ha, scale 0 to 100, 0 is no effect, 100 is complete control
# [22] = Preemergence, 62 g ai/ha, scale 0 to 100, 0 is no effect, 100 is complete control
# [23] = postemergence, 62 g ai/ha, scale 0 to 100, 0 no effect, 100 complete control
# [24] = Preemergence, 500 g ai/ha, 0 to 100 scale where 0 is no effect and 100 is complete control
# [25] = Postemergence, 125 g ai/ha, scale 0 to 100, 0 is no effect, 100 is complete control
# [26] = Postemergence, 250 g ai/ha, scale 0 to 100, 0 no effect, 100 complete control, 13 to 15 d
# [27] = Preemergence, 125 g ai/ha, scale 0 to 100, 0 is no effect, 100 is complete control
# [28] = Preemergence, 250 g ai/ha, scale 0 to 100, 0 no effect, 100 complete control
structure (smiles),measurement,setting,value
Cc1nn(C)c(=O)c(-c2c(C)sc3c(C)cc(Cl)cc23)c1O [Compound 35],"Plant response rating, Corn","[1]; visual rating after approx. 10 d, 0 to 100 scale (0 no effect, 100 complete control)",0
same,Corn plant response rating,[1],30
same,"Plant response rating, Foxtail, Giant","[2]; Postemergence, 125 g ai/ha, visual rating after approx. 10 d, 0 to 100 scale (0 no effect, 100 complete control)",90
same,"Foxtail, Giant plant response rating",[2]; [12],90
same,"Foxtail, Giant plant response rating",[2]; [13],90
same,"Plant response rating, Foxtail, Giant",[2]; [14],100
same,"Plant response rating, Ryegrass, Italian",[3]; [15],80
same,"Ryegrass, Italian plant response rating",[3]; [12],100
same,"Ryegrass, Italian plant response rating",[3]; [13],90
same,"Plant response rating, Ryegrass, Italian",[3]; [14],90
same,"Plant response rating, Wheat",[4],20
same,Wheat plant response rating,[4],40
same,"Plant response rating, Blackgrass",[5]; [16],0
same,"Plant response rating, Blackgrass",[5]; [17],5
same,Blackgrass plant response rating,[5]; [18],15
same,"Plant response rating, Blackgrass",[5]; [19],5
same,"Plant response rating, Blackgrass",[5]; [20],40
same,"Plant response rating, Blackgrass",[5]; [21],50
same,"Plant response rating, Blackgrass",[5]; [22],55
same,Blackgrass plant response rating,[5]; [23],45
same,"Plant response rating, Corn",[6]; [16],0
same,"Plant response rating, Corn",[6]; [17],0
same,Corn plant response rating,[6]; [18],5
same,"Plant response rating, Corn",[6]; [19],0
same,"Plant response rating, Corn",[6]; [20],0
same,"Plant response rating, Corn",[6]; [21],0
same,"Plant response rating, Corn",[6]; [22],0
same,Corn plant response rating,[6]; [23],5
same,"Plant response rating, Nutsedge, Yellow",[7]; [16],45
same,"Plant response rating, Nutsedge, Yellow",[7]; [17],60
same,"Nutsedge, Yellow plant response rating",[7]; [18],75
same,"Plant response rating, Nutsedge, Yellow",[7]; [20],20
same,"Plant response rating, Nutsedge, Yellow",[7]; [21],20
same,"Plant response rating, Nutsedge, Yellow",[7]; [22],40
same,"Nutsedge, Yellow plant response rating",[7]; [23],85
same,"Plant response rating, Pigweed",[8]; [16],35
same,"Plant response rating, Pigweed",[8]; [17],25
same,Pigweed plant response rating,[8]; [18],60
same,"Plant response rating, Pigweed",[8]; [20],75
same,"Plant response rating, Pigweed",[8]; [21],75
same,"Plant response rating, Pigweed",[8]; [22],80
same,Pigweed plant response rating,[8]; [23],55
same,"Plant response rating, Soybean",[9]; [16],0
same,"Plant response rating, Soybean",[9]; [17],0
same,Soybean plant response rating,[9]; [18],0
same,"Plant response rating, Soybean",[9]; [20],0
same,"Plant response rating, Soybean",[9]; [21],0
same,"Plant response rating, Soybean",[9]; [22],0
same,Soybean plant response rating,[9]; [23],5
same,"Plant response rating, Velvetleaf",[10]; [16],60
same,"Plant response rating, Velvetleaf",[10]; [17],75
same,Velvetleaf plant response rating,[10]; [18],100
same,"Plant response rating, Velvetleaf",[10]; [20],0
same,"Plant response rating, Velvetleaf",[10]; [21],40
same,"Plant response rating, Velvetleaf",[10]; [22],85
same,Velvetleaf plant response rating,[10]; [23],100
same,"Plant response rating, Waterhemp",[11]; [16],0
same,"Plant response rating, Waterhemp",[11]; [17],30
same,Waterhemp plant response rating,[11]; [18],25
same,"Plant response rating, Waterhemp",[11]; [20],40
same,"Plant response rating, Waterhemp",[11]; [21],40
same,"Plant response rating, Waterhemp",[11]; [22],50
same,Waterhemp plant response rating,[11]; [23],45
Cc1ccc2sc(Br)c(-c3c(O)c(C)nn(C)c3=O)c2c1 [Compound 79],"Plant response rating, Corn",[1]; 0 to 100 scale where 0 is no effect and 100 is complete control,0
same,Corn plant response rating,[1],0
same,"Plant response rating, Foxtail, Giant",[2]; [15],70
same,"Foxtail, Giant plant response rating",[2]; [12],80
same,"Foxtail, Giant plant response rating",[2]; [13],90
same,"Plant response rating, Foxtail, Giant",[2]; [24],90
same,"Plant response rating, Ryegrass, Italian",[3]; [15],80
same,"Ryegrass, Italian plant response rating",[3]; [12],90
same,"Ryegrass, Italian plant response rating",[3]; [13],80
same,"Plant response rating, Ryegrass, Italian",[3]; [24],100
same,"Plant response rating, Wheat",[4],0
same,Wheat plant response rating,[4],0
same,Blackgrass plant response rating,[5]; [18],5
same,"Plant response rating, Blackgrass",[5]; [25],35
same,"Plant response rating, Blackgrass",[5]; [26],50
same,"Plant response rating, Blackgrass",[5]; [21],20
same,"Plant response rating, Blackgrass",[5]; [22],50
same,"Plant response rating, Blackgrass",[5]; [27],60
same,Blackgrass plant response rating,[5]; [28],85
same,Blackgrass plant response rating,[5]; [23],10
same,Corn plant response rating,[6]; [18],0
same,"Plant response rating, Corn",[6]; [25],25
same,"Plant response rating, Corn",[6]; [26],35
same,"Plant response rating, Corn",[6]; [21],0
same,"Plant response rating, Corn",[6]; [22],0
same,"Plant response rating, Corn",[6]; [27],5
same,Corn plant response rating,[6]; [28],5
same,Corn plant response rating,[6]; [23],0
same,"Nutsedge, Yellow plant response rating",[7]; [18],85
same,"Plant response rating, Nutsedge, Yellow",[7]; [25],80
same,"Plant response rating, Nutsedge, Yellow",[7]; [26],85
same,"Plant response rating, Nutsedge, Yellow",[7]; [21],25
same,"Plant response rating, Nutsedge, Yellow",[7]; [22],45
same,"Plant response rating, Nutsedge, Yellow",[7]; [27],90
same,"Nutsedge, Yellow plant response rating",[7]; [28],90
same,"Nutsedge, Yellow plant response rating",[7]; [23],80
same,Pigweed plant response rating,[8]; [18],90
same,"Plant response rating, Pigweed",[8]; [25],98
same,"Plant response rating, Pigweed",[8]; [26],98
same,"Plant response rating, Pigweed",[8]; [21],100
same,"Plant response rating, Pigweed",[8]; [22],100
same,"Plant response rating, Pigweed",[8]; [27],100
same,Pigweed plant response rating,[8]; [28],100
same,Pigweed plant response rating,[8]; [23],98
same,Soybean plant response rating,[9]; [18],0
same,"Plant response rating, Soybean",[9]; [25],5
same,"Plant response rating, Soybean",[9]; [26],5
same,"Plant response rating, Soybean",[9]; [21],0
same,"Plant response rating, Soybean",[9]; [22],0
same,"Plant response rating, Soybean",[9]; [27],5
same,Soybean plant response rating,[9]; [28],0
same,Soybean plant response rating,[9]; [23],0
same,Velvetleaf plant response rating,[10]; [18],75
same,"Plant response rating, Velvetleaf",[10]; [25],90
same,"Plant response rating, Velvetleaf",[10]; [26],90
same,"Plant response rating, Velvetleaf",[10]; [21],80
same,"Plant response rating, Velvetleaf",[10]; [22],85
same,"Plant response rating, Velvetleaf",[10]; [27],95
same,Velvetleaf plant response rating,[10]; [28],95
same,Velvetleaf plant response rating,[10]; [23],85
same,Waterhemp plant response rating,[11]; [18],85
same,"Plant response rating, Waterhemp",[11]; [25],80
same,"Plant response rating, Waterhemp",[11]; [26],95
same,"Plant response rating, Waterhemp",[11]; [21],100
same,"Plant response rating, Waterhemp",[11]; [22],100
same,"Plant response rating, Waterhemp",[11]; [27],100
same,Waterhemp plant response rating,[11]; [28],100
same,Waterhemp plant response rating,[11]; [23],90
